Tests used:
Assay type in all cases: in vivo
rice (Oryza sativa) = test: Test B1 flooded paddy test, rice; conditions: 250 g ai/ha, Flood, applied to paddy water, 2-leaf stage, visually evaluated after 10 to 14 days
Source text: (§1) A dash (-) response means no test result.

[1] = tested on: blackgrass (Alopecurus myosuroides); test: Test A1 postemergence, blackgrass; conditions: Postemergence, 0 to 100 scale (0 no effect, 100 complete control)
Summary of the method: (§2)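 Test compounds were formulated in a non-phytotoxic solvent mixture containing a surfactant. For preemergence, seeds sown in a loam soil–sand blend received a directed soil spray. For postemergence, potted plants in the same soil, 2 to 10 cm tall at the one- to two-leaf stage, were sprayed.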

[2] = tested on: Foxtail, Giant (giant foxtail, Setaria faberi); test: Test A1 preemergence, Foxtail, Giant
Summary of the method: as §2

corn (Zea mays) = test: Test A1 preemergence, corn
Summary of the method: as §2

[3] = tested on: horseweed (Erigeron canadensis); test: Test A1 postemergence, horseweed; conditions: Postemergence
Summary of the method: as §2

[4] = tested on: Ryegrass, Italian (Italian ryegrass, Lolium multiflorum); test: Test A1 preemergence, Ryegrass, Italian
Summary of the method: as §2

[5] = tested on: Foxtail, Giant (giant foxtail, Setaria faberi); test: Test A1 postemergence, Foxtail, Giant; conditions: Postemergence
Summary of the method: as §2

[6] = tested on: Pigweed, Palmer (palmer amaranth, palmer pigweed, Amaranthus palmeri); test: Test A1 preemergence, Pigweed, Palmer
Summary of the method: as §2

soybean (Glycine max) = test: Test A1 preemergence, soybean
Summary of the method: as §2

[7] = tested on: wheat (Triticum aestivum); test: Test A1 postemergence, wheat; conditions: Postemergence
Summary of the method: as §2

[8] = tested on: barnyardgrass (Echinochloa crus-galli); test: Test B1 flooded paddy test, barnyardgrass; conditions: 250 g ai/ha, Flood, applied to paddy water, 2-leaf stage, visually evaluated after 10 to 14 days
Source text: as §1

[9] = 31 g ai/ha, 0 to 100 scale (0 no effect, 100 complete control)
[10] = 125 g ai/ha, 0 to 100 scale, 0 no effect, 100 complete control
[11] = 31 g ai/ha, 0 to 100 scale (0 no effect, 100 complete control), 10 days

Row | SMILES | Plant response rating, Rice (0 to 100 scale, 0 is no effect, 100 is complete control) (rice (Oryza sativa)) | Plant response rating, Blackgrass ([1]; 31 g ai/ha, 10 days) | Plant response rating, Blackgrass ([1]; 125 g ai/ha) | Plant response rating, Foxtail, Giant [2, 9] | Plant response rating, Foxtail, Giant [2, 10] | Plant response rating, Corn (corn (Zea mays); [9]) | Plant response rating, Corn (corn (Zea mays); [10]) | Plant response rating, Horseweed [3, 11] | Plant response rating, Horseweed ([3]; 125 g ai/ha, 0 to 100 scale) | Plant response rating, Ryegrass, Italian [4, 9] | Plant response rating, Ryegrass, Italian [4, 10] | Plant response rating, Foxtail, Giant [5, 11] | Plant response rating, Foxtail, Giant ([5]; 125 g ai/ha, 0 to 100 scale) | Plant response rating, Pigweed, Palmer [6, 9] | Plant response rating, Pigweed, Palmer [6, 10] | Plant response rating, Soybean (soybean (Glycine max); [9]) | Plant response rating, Soybean (soybean (Glycine max); [10]) | Plant response rating, Wheat [7, 11] | Plant response rating, Wheat ([7]; 125 g ai/ha, 0 to 100 scale) | Plant response rating, Barnyardgrass (0 to 100 scale, 0 is no effect, 100 is complete control) [8]
1 | Cc1cc(Br)c(C2=NOC3CCCC23)cc1NS(=O)(=O)C(F)(F)F (stereo not shown) [Compound 302] | 0 | 0 | 0 | 20 | 80 | 0 | 0 | 10 | 40 | 50 | 90 | 0 | 0 | 20 | 50 | 0 | 20 | 0 | 10 | 0
2 | Cc1cc(C(F)(F)F)c(C2=NOC3CCCC23)cc1NS(=O)(=O)C(F)(F)F (stereo not shown) [Compound 306] | 0 | 0 | 0 | 0 | 20 | 0 | 0 | 0 | 40 | 0 | 80 | 0 | 30 | 50 | 100 | 0 | 0 | 0 | 20 | 0
3 | Cc1cc(C2CC2)c(C2=NOC3CCCC23)cc1NS(=O)(=O)C(F)(F)F (stereo not shown) [Compound 307] | 0 | 0 | 10 | 50 | 100 | 0 | 0 | 30 | 80 | 50 | 100 | 20 | 40 | 30 | 80 | 0 | 30 | 30 | 40 | 60
4 | Cc1cc(F)c(C2=NOC3CCCC23)cc1NS(=O)(=O)C(F)(F)F (stereo not shown) [Compound 310] | 0 | 0 | 0 | 0 | 20 | 0 | 0 | 10 | 30 | 40 | 50 | 0 | 0 | 0 | 70 | 0 | 0 | 0 | 20 | 0
5 | COc1cc(C)c(NS(=O)(=O)C(F)(F)F)cc1C1=NOC2CCCC12 (stereo not shown) [Compound 312] | 0 | 0 | 0 | 20 | 30 | 0 | 10 | 0 | 20 | 0 | 40 | 0 | 10 | 0 | 0 | 0 | 50 | 0 | 0 | 0
6 | Cc1cc(C2CC2)c(NS(=O)(=O)C(F)(F)F)cc1C1=NOC2(CCCC2)C1 [Compound 313] | 0 | 0 | 0 | 0 | 40 | 0 | 0 | 0 | 0 | 30 | 50 | 0 | 0 | 0 | 20 | 0 | 0 | 0 | 0 | 0
7 | Cc1cc(C)c(N(COC(=O)OC(C)C)S(=O)(=O)C(F)(F)F)cc1C1=NOC2CCCC12 (stereo not shown) [Compound 314] | 25 | 0 | 10 | 30 | 90 | 10 | 40 | 0 | 50 | 40 | 90 | 10 | 30 | 70 | 70 | 20 | 40 | 50 | 70 | 98
8 | COC(=O)OCN(c1cc(C2=NOC3CCCC23)c(C)cc1C)S(=O)(=O)C(F)(F)F (stereo not shown) [Compound 315] | 35 | 0 | 0 | 70 | 90 | 10 | 20 | 20 | 60 | 70 | 100 | 0 | 20 | 100 | 90 | 40 | 50 | 30 | 70 | 98

— US20230278972A1, “SUBSTITUTED HALOALKYL SULFONANILIDE HERBICIDES” (FMC Corporation, priority 2020, published 2023)
